Legend:
[1] = test system: established colorectal (MC32a) and pancreatic (Panc02) tumors; conditions: weekly i.t. injections; cited from earlier work
[2] = mouse, in vivo; cited from earlier work
[3] = test system: mice grafted with cancer cells; experiment: In-vivo mice study, tumor volume vs time
From the text: FIG. 6 provides a graph of change in Mice tumor volume vs time involving different treatments. The black curve corresponds to a control untreated tumor, the gray curve corresponds to intratumoreal injection with placebo particles containing no drug, the green curve corresponds to intravenous injection with drug, the red curve corresponds to intratumoreal injection of free drug, and the blue curve corresponds to injection with drug-encapsulated hydrogel PRV311.
Here, the PRV311 composition included microparticles loaded with the anti-tumor cytokine IL-12. […] It is hypothesized that the injected PRV311's polymeric mesh causes microparticles containing PRV311 to be retained locally, increasing efficacy.

## IL-12: potent antitumor cytokine
[1]
  established tumors eradicated: ≤ 10%
[2]
  local IL-12 retention: 1 to 2 days
[3]; intratumoral injection
  tumor growth: merely delayed tumor growth
[3]; intravenous injection
  tumor growth: no significant change in tumor growth rate

From patent US20230103552A1, “SYSTEMS AND PHARMACEUTICAL COMPOSITIONS FOR TREATMENT BY DIRECT INJECTION OF A TARGETED POPULATION OF CELLS” (Privo Technologies, Inc., priority 2020, published 2023)
